Results: patent US9101567B2, “Suppression of cancer growth and metastasis using nordihydroguaiaretic acid derivatives with 7-hydroxystaurosporine” (The Johns Hopkins University, priority 2010, dated 2015)

What was measured:
Beclin-1 = assay: Western blotting of Beclin-1 in LNCaP cells; type: cell-based, human; details: normoxic or hypoxic, 6 or 18 hr, M4N 80 μM
Protocol: (§1) The sample volumes were adjusted by the total protein amount. Protein assay was performed by Bio-Rad Protein Assay (Bio-Rad Laboratories, Inc. Hercules, Calif.). The samples were resolved by the standard SDS-polyacrylamide gel electrophoresis and transferred to nitrocellulose membrane (Amersham Biosciences, Bjorkgatan, Sweden). The membranes were blocked with skim milk, and incubated with primary antibodies at 4° C. overnight and then with secondary antibody conjugated with horse radish peroxidase at room temperature for 2 hrs. The signals were detected by western blot chemiluminescence reagent plus (New England Nuclear Life Science Products, Boston, Mass.). BNIP3 is a member of Bcl-2 family proteins which sends pro-apoptotic signal to mitochondria and induces mitochondrial membrane potential depolarization. […] This implies that BNIP3 is involved in autophagy as well as cell death. […] Since BNIP3 is known to be activated more under hypoxic conditions (24), BNIP3 expression was examined in both normoxic and hypoxic conditions (FIGS. 3A&B). […] Previously it was shown that BNIP3 expression is augmented by hypoxia through both […] (HIF)1α-dependent and nondependent pathways (24).

HIF1α = assay: Western blotting of HIF1α in LNCaP cells under hypoxia; type: cell-based, human; details: M4N 80 μM
From the text: LNCaP human prostate cancer, DU145 human prostate cancer, PC3 human prostate cancer, MCF-7 human breast cancer, MDA-MB-231 human breast cancer, MDA-MB-468 human breast cancer, HT29 human colon cancer, K562 human myelogenous leukaemia, HepG2 human hepatoma, Hep3B human hepatoma, and LN229 human glioblastoma cancer cell lines were purchased from American Type Culture Collection (Manassas, Va.). OC24 human ascites ovarian cancer cell line was a generous gift from Dr. XXX (Johns Hopkins University, MD). LNCaP cell line was cultured in RPMI1640 medium supplemented with glucose (14 mM), pyruvate (1 mM), and fetal bovine serum (FBS) (10%). DU145 cell line was cultured in MEM supplemented with non-essential amino acids, glucose (21 mM), pyruvate (1 mM), and FBS (10%). PC3 cell line was cultured in F-12K medium supplemented with FBS (10%). MCF-7 cell line was cultured in DMEM supplemented with FBS (10%). OC24 cell line was cultured in RPMI1640 medium supplemented with FBS (10%) as suspension culture. MDA-MB-231 and 468 cell lines were cultured in Leibovitz's L15 medium supplemented with FBS (10%) under air. HT29 cell line was cultured in DMEM supplemented with glucose (25 mM) and FBS (10%). K562 cell line was cultured in RPMI1640 supplemented with FBS (10%). […] The signals were detected by western blot chemiluminescence reagent plus (New England Nuclear Life Science Products, Boston, Mass.). […]

[1] = human patients (reference 10); cited from earlier work
BNIP3L = assay: Western blotting of BNIP3L in LNCaP cells; type: cell-based, human; details: M4N 80 μM
Protocol: as §1

caspase-3 or 9 = assay: Western blotting of caspase-3 and 9 cleavage in HepG2 cells; type: cell-based, human; details: HepG2, 17 hrs; M4N 80 μM, UCN-01 5 μM
Protocol: After cells had been grown in […] flasks and treated with reagents, the cells were washed with PBS (−) three times and suspended in RIPA buffer (150 mM NaCl, 50 mM Tris-HCl (pH 8.0), 0.1% SDS, 1% NP40, and 0.5% deoxycholate) supplemented with protease inhibitor cocktail (Calbiochem, San Diego, Calif.). The sample volumes were adjusted by the total protein amount. Protein assay was performed by Bio-Rad Protein Assay (Bio-Rad Laboratories, Inc. Hercules, Calif.). The samples were resolved by the standard SDS-polyacrylamide gel electrophoresis and transferred to nitrocellulose membrane (Amersham Biosciences, Bjorkgatan, Sweden). […] The signals were detected by western blot chemiluminescence reagent plus (New England Nuclear Life Science Products, Boston, Mass.).
The effect of the combination treatments on cell death and autophagy was examined in two cell lines other than LNCaP cells. […] On the contrary caspase-7 cleavage was detected in MCF-7 cells treated with UCN-01 treatment alone, the combination treatments of M4N with either etoposide or UCN-01 (FIG. 4C). […] On the contrary a great deal of caspase-7 cleavage product was detected in HepG2 cells treated with UCN-01 or the combination treatment of M4N with UCN-01 while a small amount of caspase-7 cleavage product was detected in the cells treated with etoposide or rapamycin regardless of a concomitant treatment with M4N (FIG. 4C).

| Compound | Beclin-1 expression (Beclin-1) | HIF1α expression (HIF1α; 6 hr exposure to hypoxia) | HIF1α expression (HIF1α; 18 hr exposure to hypoxia) | toxicity in clinical trials [1] | BNIP3L expression (BNIP3L) | caspase-3 cleaved product (caspase-3 or 9) |
| --- | --- | --- | --- | --- | --- | --- |
| COc1ccc(C[C@@H](C)[C@@H](C)Cc2ccc(OC)c(OC)c2)cc1OC [M4N, Tetra-O-methyl nordihyroguaiaretic acid] | not affected | did not have much effect | reduced HIF1α expression | fairly nontoxic | only slightly reduced |  |
| CN[C@@H]1C[C@H]2O[C@@](C)([C@@H]1OC)n1c3ccccc3c3c4c(c5c6ccccc6n2c5c31)C(=O)N[C@H]4O [UCN-01, 7-hydroxystaurosporine] |  |  |  |  |  | small amount |
